Reference: PubChem BioAssay (NCI)
Values joined by “and” are separate entries in the source; they are usually repeats but may differ in a detail not shown here. Equal entries are not always repeated.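 Method: 48-hour compound exposure of cells in 96-well plates, five concentrations, linear interpolation of endpoints. Abbreviation: GI50, concentration required for 50% inhibition of growth. At the TGI there is no net growth.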

Assays:
Assay in all cases: NCI-60 cell line screen, 48 h
[1] = system: HCT-15 colon
[2] = system: MCF7 breast
[3] = system: SK-MEL-28 melanoma
[4] = system: SK-MEL-2 melanoma
[5] = system: PC-3 prostate
[6] = system: SF-295 CNS
[7] = system: HOP-62 NSCLC
[8] = system: KM12 colon
[9] = system: HCC-2998 colon
[10] = system: DU-145 prostate

| SMILES | GI50 [1] | TGI [1] | GI50 [2] [µM] | TGI [2] | GI50 [3] | TGI [3] | GI50 [4] | TGI [4] | GI50 [5] | TGI [5] | GI50 [6] | TGI [6] | GI50 [7] | TGI [7] | GI50 [8] | TGI [8] | GI50 [9] [µM] | TGI [9] | GI50 [10] | TGI [10] |
| --- | --- | --- | --- | --- | --- | --- | --- | --- | --- | --- | --- | --- | --- | --- | --- | --- | --- | --- | --- | --- |
| O=C(Nc1ccc(Br)cc1)c1ccc(Cl)c(Cl)c1 | 3.02 µM | > 100 µM | 2.19 | > 31.4 µM | 3.93 µM | > 100 µM | 3.59 µM | > 29.8 µM | 2.47 µM | > 30.8 µM | 2.03 µM | 4.94 µM | 3.86 µM | > 52.3 µM | 3.16 µM | > 100 µM | 3.99 | > 71.7 µM | 3.86 µM | > 100 µM |
| Cc1cn2c(/C=C3\C(=O)N(C)c4ccc(O)cc43)c(C)nc2s1 | 4.16 µM | > 100 µM | 2.97 | 11.9 µM | 5.15 µM | > 100 µM | 3.33 µM | 18.4 µM | 7.46 µM | > 100 µM | 2.82 µM | 23.6 µM | 18.2 µM | > 100 µM | 2.38 µM | > 100 µM | 7.37 | 36 µM | 21 µM | > 100 µM |
| COc1cc2c(c(OC)n1)[C@]1(O)[C@H](O)[C@H](CN(C)C)[C@@H](c3ccccc3)[C@]1(c1ccc(C#N)cc1)O2 | 0.0243 µM and 0.0197 µM | 3.65 µM and 3.44 µM | < 0.01 | 0.721 µM and 3.09 µM | 0.0334 µM and 0.0313 µM | 0.813 µM and 1.56 µM | 0.0319 µM and 0.034 µM | 0.318 µM and 0.369 µM | 0.0223 µM and < 0.0116 µM | 10.7 µM and 2.39 µM | 0.0212 µM and 0.0231 µM | 0.811 µM and 1.84 µM | < 0.0151 µM and 0.0102 µM | 3.52 µM and 0.565 µM | 0.0128 µM and < 0.01 µM | 3.61 µM and 7.59 µM | < 0.01 | 0.564 µM and 0.81 µM | 0.0191 µM and < 0.0136 µM | 3.45 µM and 3.69 µM |
| CC1CCC(=O)C(C(=O)CC2CC(=O)NC(=O)C2)C1 (centres undefined) | – | > 100 µM | – | > 100 µM | – | > 100 µM | – | > 100 µM | – | > 100 µM | – | > 100 µM | – | > 100 µM | – | > 100 µM | – | > 100 µM | – | > 100 µM |
| COc1ccc2c(c1)C(C)Cc1c(ncnc1-n1c(C)nc3ccccc31)N2C (centres undefined) | 1.83 µM | 16.9 µM | 1.88 | 19.9 µM | 11.1 µM | 26.2 µM | 4.48 µM | 17.8 µM | 3.25 µM | 27.3 µM | 1.79 µM | 7.85 µM | 4.23 µM | 24.6 µM | 2.59 µM | 17.8 µM | 4.09 | 16.4 µM | 3.27 µM | 13.4 µM |
| Cc1cc(I)cc(CN(C)CCCN2CCOCC2)c1O | 29 µM | > 100 µM | 32.7 | > 100 µM | 17.4 µM | 32.3 µM | 19.6 µM | 38.5 µM | 42.9 µM | > 100 µM | 25.1 µM | 74.8 µM | 38.6 µM | > 100 µM | 29.6 µM | > 100 µM | 35.4 | > 100 µM | > 100 µM | > 100 µM |
| COc1cccc(/C(COc2ccc3c(c2)oc(=O)c2cc(OC)ccc23)=N/O)c1 | 3.99 µM | > 100 µM | 4.02 | > 100 µM | 4.28 µM | > 100 µM | 6.62 µM | > 100 µM | 6.29 µM | > 100 µM | 8.22 µM | > 100 µM | 6.9 µM | > 100 µM | 3.86 µM | > 100 µM | 7.78 | > 100 µM | 26 µM | > 100 µM |
| O=[N+]([O-])c1ccc2c(c1)C(c1ccccc1Cl)=Nc1cn[nH]c1N2 | 15.3 µM | > 25 µM | 10.9 | > 25 µM | > 23.7 µM | > 25 µM | 10.7 µM | > 22 µM | 14.3 µM | > 25 µM | 8.48 µM | > 23.8 µM | > 20.7 µM | > 25 µM | 12.1 µM | > 25 µM | 24.7 | > 25 µM | 20.4 µM | > 25 µM |
| CC(=O)O[C@H](C[C@H](C(C)C)N(C)C(=O)[C@@H](NC(=O)[C@H]1CCCCN1C)C(C)C)c1nc(C(=O)N[C@@H](Cc2ccccc2)C[C@H](C)C(=O)O)c(CCOCc2ccccc2)s1 | < 0.001 µM | > 10 µM | < 0.001 | > 10 µM | 0.797 µM | > 10 µM | < 0.001 µM | > 5.68 µM | < 0.001 µM | > 10 µM | < 0.001 µM | < 0.0297 µM | < 0.001 µM | > 10 µM | < 0.001 µM | – | < 0.001 | 0.616 µM | < 0.001 µM | 0.00119 µM |
| COc1ccc(C(=O)COc2cccc(/C=C3\Oc4ccc5ccccc5c4C3=O)c2)cc1 | 2.94 µM | 13.7 µM | 2.45 | 16.1 µM | 15.3 µM | 28.7 µM | 3.76 µM | 16.6 µM | 1.54 µM | 3.23 µM | 14.3 µM | 36.4 µM | 14.9 µM | 28.1 µM | 3.39 µM | 14.6 µM | 15.3 | 28.8 µM | 4.19 µM | 16 µM |
| Cc1c(C2=C(Br)C(=O)N(C)C2=O)c(=O)n(C)c(=O)n1C | – | 45.2 µM | – | 37.1 µM | – | > 100 µM | – | 35.2 µM | – | 49.6 µM | – | > 100 µM | – | > 100 µM | – | > 100 µM | – | 53.3 µM | – | 80.9 µM |
| CCOC(=O)CNC(=O)c1ccccc1Nc1ccnc(C(F)(F)F)c1 | > 54.6 µM | > 100 µM | 38.8 | > 89.1 µM | 28.1 µM | > 83.3 µM | 44.6 µM | > 72.4 µM | 25.4 µM | > 95.5 µM | 54.4 µM | > 100 µM | 39.6 µM | > 69.6 µM | 30.2 µM | > 86 µM | 71.3 | > 100 µM | 46.9 µM | 99.8 µM |
| CCC(C)(C)c1ccc(OCCCCCCN2CCNCC2)cc1 | 1.66 µM | 3.39 µM | 1.56 | 3.2 µM | 1.74 µM | 3.77 µM | 2.19 µM | 4.74 µM | 2.6 µM | 13.8 µM | 1.87 µM | 3.6 µM | 2.32 µM | 6.09 µM | 1.88 µM | 3.5 µM | 2 | 3.76 µM | 2.39 µM | 6.06 µM |
| N=C(N)SCc1cccc(-c2nc3ccccc3c(=O)o2)c1 | – | > 100 µM | – | > 100 µM | – | > 100 µM | – | > 100 µM | – | > 100 µM | – | > 100 µM | – | > 100 µM | – | > 100 µM | – | > 100 µM | – | > 100 µM |
| O=c1[nH]cnc2cccc(Cl)c12 | – | > 100 µM | – | > 100 µM | – | > 100 µM | – | > 100 µM | – | > 100 µM | – | > 100 µM | – | > 100 µM | – | > 100 µM | – | > 100 µM | – | > 100 µM |
| CC(C)S(=O)(=O)c1ccccc1Nc1nc(Nc2cccc(NC(=O)CN)c2)ncc1Cl | 0.16 µM | 3.72 µM | 0.0177 | 1.25 µM | 0.406 µM | 2.25 µM | 0.347 µM | 1.57 µM | 0.308 µM | 5.9 µM | < 0.0225 µM | 8.59 µM | 0.112 µM | 6.13 µM | 0.0331 µM | 2.45 µM | 0.399 | 4.12 µM | 0.406 µM | 6.51 µM |
